Here are results for 5 molecules from US9713613B2, “Methods and compositions for the treatment of cancer and related hyperproliferative disorders” (priority 2007, dated 2017).

SMILES strings stand for the structures.

Experiment [1] concerns endogenous SREBPs. Kind of experiment: Luciferase reporter assay (pSRE-Luc, normalized by β-gal) in HEK293 cells. In kind it is cell-based, human. Further details: Luc/Gal: dose or concentration left out as unconfirmed. The method, then:
On day 0, HEK293 cells were plated out in triplicate at a density of 5×10^3/well onto a 96-well plate in a Dulbecco's modified Eagle's medium with 10% fetal bovine serum, 100 units/mL penicillin, and 100 μg/mL streptomycin sulfate. On day 2, the cells were transiently co-transfected with the following plasmids by using Lipofectamine reagent (Invitrogen): 0.4 μg/well pSRE-Luc (an SRE-1-driven luciferase reporter construct; Hua et al., 1995 J Biol Chem 270, 29422-7), and 0.1 μg/well a b-gal reporter in which the expression of β-gal is controlled by an actin promoter in a final volume of […]. After incubation for 5 hrs at 37° C., the cells were washed with phosphate-buffered saline and then incubated in 100 μl of Dulbecco's modified Eagle's medium with 10% lipid-depleted serum, […] penicillin, and 100 μg/mL streptomycin sulfate in the absence or presence of fatostatin A. After 20 hrs of incubation, the cells in each well were lysed with 20 μL of 1× Reporter Lysis Buffer (Promega), and aliquots were used for measurement of luciferase (10 μL) and β-galactosidase (10 μL) activities. For luciferase assay, photon production was detected as counts per second in a Wallac 1420 ARVOsx multilabel counter (PerkinElmer). For β-galactosidase assays, hydrolysis of O-nitrophenyl-β-D-galactosidase was measured after incubation for 0.5 h at 37° C. by a microplate reader at the wave length of 405 nm (Tecan). The luciferase activity (counts per second) was normalized by the activity of β-galactosidase (OD units). For overexpression of the N-terminal matured form of SREBP-1c, pCMV-SREBP-1c (1-436) was co-transfected with pSRE-Luc. pSRE-Luc and pCMV-SREBP-1c (1-436) were provided by J. L. Goldstein (University of Texas Southwestern Medical Center). […]
A general note: In a reporter assay the amount or activity of a reporter protein is the signal.

A further experiment relates to MOLT-4 cells. Kind of experiment: MOLT-4 cell growth, MTT assay. In kind it is cell-based, human. Particulars: 48 hours. The method, then: 10,000 MOLT-4 cells (FIGS. 35A-35C) and 20,000 RPM18226 cells (FIGS. 35D-35F) were seeded onto 96 well plate in RPMI 1640 medium containing 5% FBS or fat-free charcoal treated serum (FF-FBS) for 24 hours at 37 C. MOLT-4 and RPM18226 cells were treated for additional 48 hours with different concentrations of compound 19 (None control without DMSO, Vehicle with DMSO, 1, 2, 5, 10 and 20 μM in DMSO; RPM18226 cells also were treated with 3 μM in DMSO). At the end of 48 hours cells were subjected to MTT assay to determine viability. Values are depicted as means±SD; *P<0.05.
20,000 MOLT-4 cells (FIGS. 36A-36C) and 20,000 RPM18226 cells (FIGS. 36D-36F) cells were seeded onto 96 well plates in RPMI 1640 Medium containing 5% Fetal bovine serum (FBS) or 5% fat free charcoal treated serum (FF-FBS) for 24 hours at 37 C. Cells then were treated for additional 48 hours with different concentrations of compound 17 (None control without DMSO, Vehicle with DMSO, 1, 2, 3, 5, 10 and 20 μM in DMSO). At the end of the 48 hours treatment cells were subjected to MTT assay to determine viability. Values are depicted as means±SD (n=3); **P<0.001; ***P<0.0001.
MOLT-4 cells were grown at two different conditions under 5% fetal bovine serum (FBS) and under 5% FBS fat free serum (charcoal treated serum). 10,000 Cells were seeded a 96 well plate for 24 hours before starting the treatment with different concentrations of compound 19. Compound 19 dissolved in DMSO was added to cells for 48 hours before determining cell growth using MTT assay. […] Compound 19 inhibited cell growth about 75-80% at 10 and 20 μM under both growth conditions.
MOLT-4 cells were grown at two different conditions under 5% fetal bovine serum (FBS) and under 5% FBS fat free serum (charcoal treated serum). 20,000 cells were seeded into a 96 well plate for 24 hours before starting the treatment with different concentrations of compound 17. Compound 17 dissolved in DMSO was added to cells for 48 hours before determining cell growth using MTT assay. […] Compound 17 inhibited cell growth about 85-100% at 5, 10 and 20 μM under both growth conditions. Under both 5% FBS and 5% FBS fat free sera there was a strong trend of inhibition starting at 1 μM (FIGS. 36B-36C).
(In general: Tetrazolium dyes change colour on reduction, which living cells bring about.)

A further experiment concerns 3T3-L1 cells. Kind of experiment: adipogenesis assay (formation of oil droplets). In kind it is cell-based, mouse. Also on record: key: +: The analogues that completely inhibited the formation of oil droplets in cells were scored to be adipogenesis-inhibiting analogues. Particulars: formation of oil droplets in cells. The method, then:
The adipogenesis assay was performed as described (Choi et al., 2003).

The subject of experiment [2] is endogenous SREBPs. Briefly: SREBP activation assay (pSRE-Luc luciferase reporter) in CHO-K1 cells. In kind it is cell-based, Chinese hamster. The conditions noted are these: Cricetulus griseus, CHO-K1; 5 μM in CHOK1 cells. The method, then:
To confirm that fatostatin impairs the function of SREBPs, the ability of endogenous SREBPs to activate transcription of an SREBP-responsive reporter gene was measured in CHO-K1 cells in the presence or absence of fatostatin (FIG. 18A).
Luciferase reporter assay. On day 0, CHO-K1 cells were plated out onto a 96-well plate in medium A (a 1:1 mixture of Ham's F-12 medium and Dulbecco's modified Eagle's medium, with 5% fetal bovine serum, 100 units/mL penicillin, and 100 μg/mL streptomycin sulfate). On day 2, the cells were transiently co-transfected with pSRE-Luc (an SRE-1-driven luciferase reporter construct) (Hua et al., 1995) and pAc-β-gal (β-gal reporter in which the expression of β-gal is controlled by an actin promoter), using Lipofectamine reagent (Invitrogen). After incubation for 5 h, the cells were washed with phosphate-buffered saline (PBS), and then incubated, in the absence or presence of fatostatin, in medium B (a 1:1 mixture of Ham's F-12 medium and Dulbecco's modified Eagle's medium, with 5% lipid-depleted serum, 100 units/mL penicillin, 100 μg/mL streptomycin sulfate, […], and 50 mM sodium mevalonate). After 20 h of incubation, the cells in each well were lysed, and aliquots were used to measure luciferase and β-galactosidase activities. Luciferase activity was normalized by the activity of β-galactosidase. For overexpression of the N-terminal matured form of SREBP-1c, pCMV-SREBP-1c(1-436) was co-transfected with pSRE-Luc and pAc-β-gal.
Standard SREBP activation assays were performed on the exemplary compounds identified in Table 4 as per the method for Fatostatin A in Example 1. The ability of endogenous SREBPs to activate transcription of an SREBP-responsive reporter gene was measured in the presence or absence of compounds 45-55 and 19 (FIG. 28), compounds 56-61 and 19 (FIG. 29) and compounds 62-66 (FIG. 30) at 5 μM in CHOK1 cells. […] The inhibitory concentrations of compounds 53 (FIG. 31) and compounds 58 and 61 (FIG. 32) were determined.

In turn, `CCCc1cc(-c2nc(-c3ccc(NC(C)C)cc3)cs2)ccn1` [Compound 17, N-isopropyl-4-(2-(2-propylpyridin-4-yl)thiazol-4-yl)benzenamine] yielded a Luc/Gal in the experiment with endogenous SREBPs [1] (entries 1-18 (FIG. 15), none = 9.4426) of 4.7079. In addition, the “inhibition under 5% FF FBS relative to 5% FBS” value with MOLT-4 cells (3 μM) is “about 2.5 times”. Also, in the experiment with MOLT-4 cells (5, 10 and 20 μM, both growth conditions), the “inhibition of cell growth” value is reported as 85-100%. The Inhibition of adipogenesis result in the experiment with 3T3-L1 cells is recorded as “+”.

As for `CCCc1cc(-c2ccc(-c3ccc(C)cc3)cc2)ccn1` [Compound 35], in the experiment with endogenous SREBPs [1] (entries 1, 35-39 (FIG. 17), None = 18), the Luc/Gal was 11.36. For the same molecule, the Inhibition of adipogenesis entry in the experiment on 3T3-L1 cells is “+”.

As for `CS(=O)(=O)Nc1ccc(-c2csc([C@H]3CCCN3C(=O)OCc3ccccc3)n2)cc1` [Compound 53, benzyl (R)-2-(4-(4-(methylsulfonamido)phenyl)thiazol-2-yl)pyrrolidine-1-carboxylate], the inhibition at 5 µM with endogenous SREBPs [2] was approximately 30%.

`Cc1ccc(S(=O)(=O)Nc2ccc(C(=O)N3CCN(c4cc(Cl)ccc4C)CC3)cc2)cc1` [Compound 58, (4-(5-chloro-2-methylphenyl)piperazin-1-yl)(4-(tosylamino)phenyl)methanone] returned an inhibition at 5 µM with endogenous SREBPs [2] of approximately 42%.

`Cc1ccc(-c2csc(/C(C#N)=C\Cc3ccc(S(=O)(=O)Nc4nccs4)cc3)n2)c(C)c1` [Compound 61, (Z)-4-(3-cyano-3-(4-(2,4-dimethylphenyl)thiazol-2-yl)allyl)-N-(thiazol-2-yl)benzenesulfonamide] showed an inhibition at 5 µM with endogenous SREBPs [2] of approximately 25%.

Broadly, the inhibition is the change of the read-out against control, counted positive when it falls.
